This is an account of results in ChEMBL document CHEMBL3232857, “Selective and potent morpholinone inhibitors of the MDM2-p53 protein-protein interaction” (J Med Chem, 2014).

Where only a bound is given, the exact number is not on record here.

Series [1] concerns Hepatocyte. Description: (§1) Intrinsic clearance in mouse hepatocytes measured per 10^6 cells. In kind it is ADME, cell-based.
Series [2] has as its system Hepatocyte. Description: (§2) Intrinsic clearance in human hepatocytes measured per 10^6 cells. In kind it is ADME, cell-based.
The nature of series [3]: Intrinsic clearance in dog hepatocytes measured per 10^6 cells. In kind it is ADME, cell-based, Canis lupus familiaris, Hepatocyte.
In series [4] the test system is Hepatocyte. Description: (§3) Intrinsic clearance in rat hepatocytes measured per 10^6 cells. In kind it is ADME, cell-based.
Series [5] in a line: as §2. The series is classed as ADME, cell-based, Hepatocyte. Particulars: read-out: CLH.
Series [6] is described as follows: Half life in rat at 0.5 mg/kg, iv. In kind it is ADME, organism-based. More on the design: dose 0.5 mg/kg, route intravenous. Particulars: in vivo.
Series [7] can be described thus: Clearance in rat at 0.5 mg/kg, iv. The series is classed as ADME, organism-based. More on the design: dose 0.5 mg/kg, route intravenous. Particulars: in vivo.
Series [8] is described as follows: Drug metabolism in mouse hepatocytes assessed as (2S,3S,4S,5R,6S)-6-(2-((2R,5R,6R)-4-((S)-2-(tert-butylsulfonyl)-1-cyclopropylethyl)-6-(3-chlorophenyl)-5-(4-chlorophenyl)-3-oxomorpholin-2-yl)acetoxy)-3,4,5-trihydroxytetrahydro-2H-pyran-2-carboxylic acid formation at 10 uM by LC-MS/MS analysis. In kind it is ADME, cell-based, Hepatocyte.
Series [9] in a line: Drug metabolism in human hepatocytes assessed as (2S,3S,4S,5R,6S)-6-(2-((2R,5R,6R)-4-((S)-2-(tert-butylsulfonyl)-1-cyclopropylethyl)-6-(3-chlorophenyl)-5-(4-chlorophenyl)-3-oxomorpholin-2-yl)acetoxy)-3,4,5-trihydroxytetrahydro-2H-pyran-2-carboxylic acid formation at 10 uM by LC-MS/MS analysis. In kind it is ADME, cell-based, Hepatocyte.
Series [10] is described as follows: Drug metabolism in human hepatocytes assessed as 2-((2R,5R,6R)-6-(3-chlorophenyl)-5-(4-chlorophenyl)-4-((S)-1-cyclopropyl-2-(1-hydroxy-2-methylpropan-2-ylsulfonyl)ethyl)-3-oxomorpholin-2-yl)acetic acid formation at 10 uM by LC-MS/MS analysis. In kind it is ADME, cell-based, Hepatocyte.
The nature of series [11]: Drug metabolism in dog hepatocytes assessed as 2-((2R,5R,6R)-6-(3-chlorophenyl)-5-(4-chlorophenyl)-4-((S)-1-cyclopropyl-2-(1-hydroxy-2-methylpropan-2-ylsulfonyl)ethyl)-3-oxomorpholin-2-yl)acetic acid formation at 10 uM by LC-MS/MS analysis. The series is classed as ADME, cell-based, Canis lupus familiaris, Hepatocyte.
The nature of series [12]: as §1. The series is classed as ADME, cell-based, Hepatocyte. Particulars: read-out: CLH.
The nature of series [13]: Drug metabolism in cynomolgus monkey hepatocytes assessed as (2S,3S,4S,5R,6S)-6-(2-((2R,5R,6R)-4-((S)-2-(tert-butylsulfonyl)-1-cyclopropylethyl)-6-(3-chlorophenyl)-5-(4-chlorophenyl)-3-oxomorpholin-2-yl)acetoxy)-3,4,5-trihydroxytetrahydro-2H-pyran-2-carboxylic acid formation at 10 uM by LC-MS/MS analysis. The series is classed as ADME, cell-based, Macaca fascicularis, Hepatocyte.

The nature of series [14]: Drug metabolism in rat hepatocytes assessed as (2S,3S,4S,5R,6S)-6-(2-((2R,5R,6R)-4-((S)-2-(tert-butylsulfonyl)-1-cyclopropylethyl)-6-(3-chlorophenyl)-5-(4-chlorophenyl)-3-oxomorpholin-2-yl)acetoxy)-3,4,5-trihydroxytetrahydro-2H-pyran-2-carboxylic acid formation at 10 uM by LC-MS/MS analysis. In kind it is ADME, cell-based, Hepatocyte.
The nature of series [15]: Drug metabolism in rat hepatocytes assessed as 2-((2R,5R,6R)-6-(3-chlorophenyl)-5-(4-chlorophenyl)-4-((S)-1-cyclopropyl-2-(1-hydroxy-2-methylpropan-2-ylsulfonyl)ethyl)-3-oxomorpholin-2-yl)acetic acid formation at 10 uM by LC-MS/MS analysis. The series is classed as ADME, cell-based, Hepatocyte.
The nature of series [16]: as §3. In kind it is ADME, cell-based, Hepatocyte. Particulars: read-out: CLH.
Series [17] can be described thus: Drug metabolism in cynomolgus monkey hepatocytes assessed as 2-((2R,5R,6R)-6-(3-chlorophenyl)-5-(4-chlorophenyl)-4-((S)-1-cyclopropyl-2-(1-hydroxy-2-methylpropan-2-ylsulfonyl)ethyl)-3-oxomorpholin-2-yl)acetic acid formation at 10 uM by LC-MS/MS analysis. The series is classed as ADME, cell-based, Macaca fascicularis, Hepatocyte.
The nature of series [18]: Drug metabolism in dog hepatocytes assessed as (2S,3S,4S,5R,6S)-6-(2-((2R,5R,6R)-4-((S)-2-(tert-butylsulfonyl)-1-cyclopropylethyl)-6-(3-chlorophenyl)-5-(4-chlorophenyl)-3-oxomorpholin-2-yl)acetoxy)-3,4,5-trihydroxytetrahydro-2H-pyran-2-carboxylic acid formation at 10 uM by LC-MS/MS analysis. The series is classed as ADME, cell-based, Canis lupus familiaris, Hepatocyte.

Series [19] can be described thus: Drug metabolism in mouse hepatocytes assessed as 2-((2R,5R,6R)-6-(3-chlorophenyl)-5-(4-chlorophenyl)-4-((S)-1-cyclopropyl-2-(1-hydroxy-2-methylpropan-2-ylsulfonyl)ethyl)-3-oxomorpholin-2-yl)acetic acid formation at 10 uM by LC-MS/MS analysis. The series is classed as ADME, cell-based, Hepatocyte.

`CC[C@@H](CS(=O)(=O)C(C)(C)C)N1C(=O)[C@@](C)(CC(=O)O)C[C@H](c2cccc(Cl)c2)[C@H]1c1ccc(Cl)cc1`: the hepatocyte CLint in series [1] was 18 µL/min/1e6 cells; in series [2] it was 15 µL/min/1e6 cells; in series [3], 68 µL/min/1e6 cells; in series [4], 6.7 µL/min/1e6 cells.
`CC[C@@H](CN(c1ccccc1)S(=O)(=O)C1CC1)N1C(=O)[C@@H](CC(=O)O)O[C@H](c2cccc(Cl)c2)[C@H]1c1ccc(Cl)cc1`: in [5], the hepatocyte CLint was 3.3 µL/min/1e6 cells.
Regarding `CC[C@@H](CN(c1ccccc1F)S(=O)(=O)C1CC1)N1C(=O)[C@@H](CC(=O)O)O[C@H](c2cccc(Cl)c2)[C@H]1c1ccc(Cl)cc1`, in series [5], the hepatocyte CLint was below 0.1 µL/min/1e6 cells.
As for `CC[C@@H](CN(c1ccc(F)cc1)S(=O)(=O)C1CC1)N1C(=O)[C@@H](CC(=O)O)O[C@H](c2cccc(Cl)c2)[C@H]1c1ccc(Cl)cc1`, the hepatocyte CLint in series [5] is 7 µL/min/1e6 cells.
With `CC[C@@H](CN(c1ccc(F)cc1F)S(=O)(=O)C1CC1)N1C(=O)[C@@H](CC(=O)O)O[C@H](c2cccc(Cl)c2)[C@H]1c1ccc(Cl)cc1`, the hepatocyte CLint in [5] stood at 4.8 µL/min/1e6 cells.
With `CC[C@@H](CN(c1ccccc1F)S(=O)(=O)C(C)C)N1C(=O)[C@@H](CC(=O)O)O[C@H](c2cccc(Cl)c2)[C@H]1c1ccc(Cl)cc1`, the hepatocyte CLint in series [5] is 15 µL/min/1e6 cells.
As for `CC[C@@H](CN(c1ccccc1F)S(C)(=O)=O)N1C(=O)[C@@H](CC(=O)O)O[C@H](c2cccc(Cl)c2)[C@H]1c1ccc(Cl)cc1`, the hepatocyte CLint in series [5] was 4.7 µL/min/1e6 cells.
Consider `CC[C@@H](CS(=O)(=O)C(C)C)N1C(=O)[C@@H](CC(=O)O)O[C@H](c2cccc(Cl)c2)[C@H]1c1ccc(Cl)cc1`, for which, in series [5], the hepatocyte CLint was determined as 2.1 µL/min/1e6 cells.
Broadly, the half-life is how long it takes for the measured level to halve. Broadly, the clearance is the volume of plasma or blood freed of the substance per unit of time. In the case of `CC[C@@H](CS(=O)(=O)C(C)(C)C)N1C(=O)[C@@H](CC(=O)O)O[C@H](c2cccc(Cl)c2)[C@H]1c1ccc(Cl)cc1`, the hepatocyte CLint in series [1] was determined as 12 µL/min/1e6 cells; in series [5], 1.9 µL/min/1e6 cells; in [3] it was 15.5 µL/min/1e6 cells; in [4] it was 1.8 µL/min/1e6 cells. Besides, the half-life in series [6] was 246 min. The compound also showed a clearance in [7] of 3.83 mL/min/kg.
On to `CC[C@@H](CS(=O)(=O)CC(C)(C)C)N1C(=O)[C@@H](CC(=O)O)O[C@H](c2cccc(Cl)c2)[C@H]1c1ccc(Cl)cc1`, for which the hepatocyte CLint in series [5] came out at 8.6 µL/min/1e6 cells.
Same read-out and setting: under `CC[C@@H](CS(=O)(=O)C1CCCC1)N1C(=O)[C@@H](CC(=O)O)O[C@H](c2cccc(Cl)c2)[C@H]1c1ccc(Cl)cc1` stands 12 µL/min/1e6 cells; under `CC[C@@H](CS(=O)(=O)c1ccccc1)N1C(=O)[C@@H](CC(=O)O)O[C@H](c2cccc(Cl)c2)[C@H]1c1ccc(Cl)cc1`, 10 µL/min/1e6 cells; under `CC[C@@H](CS(=O)(=O)N(C)C)N1C(=O)[C@@H](CC(=O)O)O[C@H](c2cccc(Cl)c2)[C@H]1c1ccc(Cl)cc1`, 19 µL/min/1e6 cells.
Turning to `CC[C@@H](CS(=O)(=O)C1COC1)N1C(=O)[C@@H](CC(=O)O)O[C@H](c2cccc(Cl)c2)[C@H]1c1ccc(Cl)cc1`, in series [5], the hepatocyte CLint worked out at 6.6 µL/min/1e6 cells.
For the compound `C[C@@H](CS(=O)(=O)C(C)(C)C)N1C(=O)[C@@H](CC(=O)O)O[C@H](c2cccc(Cl)c2)[C@H]1c1ccc(Cl)cc1`, the hepatocyte CLint in series [5] came out at 0.7 µL/min/1e6 cells.
In series [6], `CC(C)(C)S(=O)(=O)C[C@H](CC(F)(F)F)N1C(=O)[C@@H](CC(=O)O)O[C@H](c2cccc(Cl)c2)[C@H]1c1ccc(Cl)cc1` had a half-life of 240 min. The hepatocyte CLint in series [5] came to 4.7 µL/min/1e6 cells. The clearance in series [7] is 7.17 mL/min/kg.
On to `CC(C)[C@@H](CS(=O)(=O)C(C)(C)C)N1C(=O)[C@@H](CC(=O)O)O[C@H](c2cccc(Cl)c2)[C@H]1c1ccc(Cl)cc1`, for which, in series [6], the half-life is 360 min. The hepatocyte CLint in [5] stood at 1.7 µL/min/1e6 cells. Moreover, the clearance in series [7] was 1.83 mL/min/kg.
Turning to `CC(C)(C)[C@@H](CS(=O)(=O)C(C)(C)C)N1C(=O)[C@@H](CC(=O)O)O[C@H](c2cccc(Cl)c2)[C@H]1c1ccc(Cl)cc1`, the hepatocyte CLint in series [5] was found to be 2.1 µL/min/1e6 cells.
With `CC(C)(C)S(=O)(=O)C[C@H](C1CC1)N1C(=O)[C@@H](CC(=O)O)O[C@H](c2cccc(Cl)c2)[C@H]1c1ccc(Cl)cc1`, the Drug metabolism result in series [8] is reported as “metabolite_detected”; in series [9], “metabolite_notdetected”; in series [10] it was “metabolite_notdetected”; in series [11], “metabolite_notdetected”; in [13] it was “metabolite_detected”; in series [14] it was “metabolite_detected”. Further, the Drug metabolism entry in series [15] is given as “metabolite_detected”; in series [17] it was “metabolite_detected”; in [18], “metabolite_notdetected”; in [19], “metabolite_detected”. Further, the hepatocyte CLint stood at 6 µL/min/1e6 cells in [12], 1 µL/min/1e6 cells in series [5], 13 µL/min/1e6 cells in series [3] (read-out: CLH) and 3 µL/min/1e6 cells in series [16]. Moreover, in [6], the half-life was 342 min. Further, the clearance in series [7] is 5.83 mL/min/kg.
